Columns and labels:
[1] = Singlet oxygen generation with Singlet Oxygen Sensor Green (SOSG) under LED irradiation; assay type: physicochemical; settings: for k (fitting parameter for 1O2 generation curve): 0.1 W/cm^2, 650 nm LED for DBC-UiO and H2DBC, 640 nm for the others
Method: A light-emitting diode (LED) array with peak emission at 640 nm was used as the light source of singlet oxygen generation. The irradiance of LED is 100 mW/cm^2. Singlet oxygen sensor green (SOSG) reagent (Life Technologies, Carlsbad, Calif., United States of America) was employed for the detection of singlet oxygen. H2DBP and DBP-UiO samples were prepared in 5 μM solutions/suspensions in HBSS buffer (for DBP-UiO samples, the concentration was calculated as ligand equivalents). To 2 mL each of these solutions/suspensions, SOSG stock solution (5 μL at 5 mM) was added (final concentration=12.5 μM) before fluorescence measurement.
For a typical measurement, fluorescence intensity was acquired on a spectrofluorophotometer (RF-5301PC, Shimadzu Corporation, Kyoto, Japan) with excitation at 504 nm and emission at 525 nm (slit width 3 nm/5 nm for ex/em). Fluorescence was measured after irradiation by LED for 0 (as background), 10 s, 20 s, 30 s, 1 min, 1.5 min, 2 min, 2.5 min, 3 min, 3.5 min, 4 min, 4.5 min, 5 min, 6 min and 7 min.
Singlet oxygen generation efficiencies of H2DBP and DBP-UiO were determined using Singlet Oxygen Sensor Green (SOSG, Life Technologies). After exposure to a LED light source (peak emission at 640 nm, energy irradiance of 100 mW/cm^2), the […] reagent SOSG reacted with ^1O2 to generate green fluorescence which was quantified with a fluorimeter. The fluorescence intensity was plotted against irradiation time. […] The ^1O2 generation curve was fitted with the following equation: IF=A(1−e^−kt) (1) Where IF is fluorescence intensity and t represents irradiation time while A and k are fitting parameters (for detailed derivations, see SI). […]
Singlet Oxygen Sensor Green (SOSG) was employed to determine ^1O2 generation efficiencies of H2DBC and DBC-UiO. SOSG reacted with generated ^1O2 to give green fluorescence (λem=525 nm) that was quantified with a fluorometer. For comparison, ^1O2 generation efficiency of H2DBP, DBP-UiO and protoporphyrin IX (PpIX) were also determined. […]

[2] = UV-visible absorption, extinction coefficient; assay type: physicochemical
Method: The UV-visible absorption spectra of H2DBP and DBP-UiO were acquired with a UV-vis spectrophotometer (UV-2401 PC, Shimadzu Corporation, Kyoto, Japan). The H2DBP solution and DBP-UiO NMOF suspension were prepared in 0.67 mM phosphate buffer saline (PBS). The absorption of standard solutions of H2DBP at concentrations of 0.2, 0.4, 0.6, 0.8, 1, 1.5, 4 and 8 mg/L were acquired and the standard curve was plotted by linear fitting of the absorbance at 402 nm. The extinction coefficients of H2DBP at 402 nm and 619 nm are 2.2×10^5 and 1.7×10^3 M^−1cm^−1, respectively.
UV-visible absorption spectroscopy confirmed the photophysical properties of chlorin-based PSs. H2DBC has a split Soret band at λmax=408 nm and four Q-bands at 504, 534, 591, and 643 nm. […] The lowest energy Q-band of DBC-UiO has thus red-shifted by 13 nm from DBP-UiO, with an ε value of 24600 M^−1·cm^−1. H2DBC has an ε value of 21800 M^−1·cm^−1 for the lowest energy Q-band.

CT26 cells = test: In vitro PDT cytotoxicity; assay type: cell-based, murine; settings: with irradiation, LED 90 J/cm^2 (0.1 W/cm^2, 15 min), 640 or 650 nm
Method: (§1) The tumor cell uptake of NMOFs was evaluated by incubating CT26 cells with DBP-UiO or DBC-UiO at a Hf concentration of 50 μM for 4 h. […] The in vitro PDT efficacy of DBC-UiO against colon cancer cells was investigated and compared with DBP-UiO and their corresponding free ligands. […] DBP-UiO and […]: 640 nm; DBC-UiO and […]: 650 nm). DBC-UiO outperformed DBP-UiO by effectively killing both cancer cell lines at low NMOF and light doses.

HT29 cells = test: In vitro PDT cytotoxicity; assay type: cell-based, human; settings: with irradiation, LED 90 J/cm^2 (0.1 W/cm^2, 15 min), 640 or 650 nm
Method: as §1

[3] = system: subcutaneous flank tumor mouse model of CT26; test: In vivo PDT anticancer efficacy; set-up: species or system mice; settings: ligand dose 1 mg/kg intratumoral, 90 J/cm^2, two treatments
Method: (§2) In vivo anticancer efficacy experiments on subcutaneous flank tumor mouse models of CT26 and HT29 were performed. The mice were intratumorally injected with (1) PBS control, (2) DBC-UiO, (3) DBP-UiO, (4) H2DBC, or (5) H2DBP at a ligand dose of 1 mg/kg or (6) DBC-UiO at a ligand dose of 3.5 mg/kg. Twelve hours post injection, each mouse in group (1)-(5) was irradiated at the tumor site with light (0.1 W/cm^2) for 15 min (90 J/cm^2) and the mice in group (6) received light irradiation (0.1 W/cm^2) for 30 min (180 J/cm^2). For (1) to (5) groups on the CT26 model, mice are treated again 4 days after first treatment, while for (1) to (5) groups on HT29 model, mice are treated every 4 days for total 4 treatments.

[4] = system: subcutaneous flank tumor mouse model of HT29; test: In vivo PDT anticancer efficacy; set-up: species or system mice; settings: ligand dose 1 mg/kg intratumoral, 90 J/cm^2, four treatments
Method: as §2

Row | Molecule | k (fitting parameter for 1O2 generation curve) [1] | ε value of the lowest energy Q-band [2] | IC50 (CT26 cells) | IC50 (HT29 cells) | tumor growth [3] | tumor growth [4] | k (singlet oxygen generation rate) ([1]; 5 μM in HBSS, 640 nm LED 100 mW/cm^2, listed as DBP) | extinction coefficient at 402 nm ([2]; PBS) | extinction coefficient at 619 nm ([2]; PBS)
1 | 5, 15-di(p-benzoato)chlorin [H2DBC] | 0.25 min⁻¹ | 21800 M⁻¹ cm⁻¹ | 8.5 ± 0.1 µM | 7.5 ± 2.3 µM | failed to suppress the tumor growth | failed to suppress the tumor growth | – | – | –
2 | O=C(O)c1ccc(-c2c3nc(cc4ccc([nH]4)c(-c4ccc(C(=O)O)cc4)c4nc(cc5ccc2[nH]5)C=C4)C=C3)cc1 [H2DBP, 5,15-di(p-benzoato)porphyrin] | 0.06 min⁻¹ | – | 20 ± 3.1 µM | 17 ± 4 µM | failed to suppress the tumor growth | failed to suppress the tumor growth | 0.0015 s⁻¹ | 220000 M⁻¹ cm⁻¹ | 1700 M⁻¹ cm⁻¹

— US10806694B2, “Nanoparticles for photodynamic therapy, X-ray induced photodynamic therapy, radiotherapy, radiodynamic therapy, chemotherapy, immunotherapy, and any combination thereof” (The University of Chicago, priority 2014, dated 2020)
